Some test systems named below: A549; ACHN; EKVX; HOP-62; KM12; NCI-H23; NCI-H522; SF-268; SK-MEL-2; U-251; UACC-257; UO-31; A498; DU-145; Hs-578T; MCF7; PC-3; SK-OV-3; T47D.
Common to all, as to experiment: DTP human tumour cell line panel, 48 h

The source of these data is ChEMBL document CHEMBL1201862, “PubChem BioAssay data set” (2004).

SMILES strings stand for the structures.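 Grown in 96-well plates, cells were treated for 48 hours with each compound at five concentrations. Insufficient inhibition: endpoint recorded as highest concentration tested. GI50 marks 50% less growth.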 Active and inactive are the calls of the source. Rule as the data show it: active = GI50 up to about 1.1 µM and inactive = higher.

By GI50 is commonly meant the concentration at which growth is held to half of that of the control. As to `CCC1CCC2CCCC(C)N12` (configuration not stated), the GI50 in the assay with A549, in the assay with ACHN, with EKVX, with HOP-62, with KM12 and with NCI-H23 was > 100 µM (inactive) throughout. Besides, the GI50 in the assay on NCI-H522, in the assay on SF-268, in the assay on SK-MEL-2, in the assay with U-251, in the assay on UACC-257 and in the assay with UO-31 was > 100 µM (inactive) throughout.

As to `COc1ccc([C@H]2[C@H](C)C3=Nc4ccccc4CN32)cc1`, the GI50 in the assay with A498 is > 100 µM (inactive); in the assay on A549, 55.1 µM (inactive); in the assay with ACHN, 86.9 µM (inactive); in the assay with DU-145, > 100 µM (inactive); with EKVX it was 96.8 µM (inactive); with HOP-62, > 100 µM (inactive). Also, the GI50 in the assay on Hs-578T is > 100 µM (inactive); in the assay on KM12, 42.6 µM (inactive); in the assay with MCF7 it was 59.7 µM (inactive); with NCI-H23, 69.8 µM (inactive); with NCI-H522 it was > 100 µM (inactive); in the assay on PC-3, > 100 µM (inactive). In addition, the GI50 is 98.9 µM (inactive) with SF-268; > 100 µM (inactive) with SK-MEL-2; 51.5 µM (inactive) with U-251; > 100 µM (inactive) with UACC-257; > 100 µM (inactive) with UO-31.

`Cc1nc2c(O)cc3c4c([nH]c3c2nc1C)C(=O)CCC4`: the GI50 with A498 is 19.5 µM (inactive); in the assay on A549 it was 2.4 µM (inactive); in the assay with ACHN, 5.45 µM (inactive); with DU-145, 1.99 µM (inactive); with EKVX, 6.37 µM (inactive); in the assay on HOP-62, 5.89 µM (inactive). Also, the GI50 was 2.62 µM (inactive) in the assay on Hs-578T; 3.69 µM (inactive) in the assay with KM12; 0.875 µM (active) in the assay on MCF7; 6.58 µM (inactive) in the assay with NCI-H23; 3.61 µM (inactive) in the assay with PC-3; 2.96 µM (inactive) in the assay on SF-268. In addition, the GI50 in the assay on SK-MEL-2 is 2.59 µM (inactive); in the assay on SK-OV-3, 3.76 µM (inactive); in the assay with U-251 it was 2.16 µM (inactive); in the assay on UACC-257 it was 95.1 µM (inactive); with UO-31 it was 14.3 µM (inactive).

Consider `CC(=O)/N=C1\NC(=O)/C(=C/c2ccccc2Cl)N1C`, for which the GI50 in the assay with A549 was > 100 µM (inactive); with ACHN it was > 100 µM (inactive); in the assay on DU-145 it was > 100 µM (inactive); in the assay on EKVX it was 26.4 µM (inactive); in the assay on HOP-62 it was > 100 µM (inactive); with Hs-578T it was > 100 µM (inactive). Further, the GI50 in the assay on KM12, with MCF7, in the assay with NCI-H23, in the assay on NCI-H522, with PC-3 and in the assay on SF-268 was > 100 µM (inactive) in each case. The GI50 in the assay with SK-MEL-2, in the assay with SK-OV-3, in the assay with U-251, with UACC-257 and with UO-31 was > 100 µM (inactive) in each case.

With `N#CC(/C(=N/NC(N)=S)C(=O)Nc1cccc(Cl)c1)c1ccccc1` (configuration not stated), the GI50 in the assay with A498, in the assay with A549, in the assay with ACHN, in the assay with EKVX, with HOP-62 and in the assay on KM12 was > 100 µM (inactive) in each case. Besides, the GI50 with NCI-H23, with NCI-H522, in the assay on SF-268, in the assay on SK-MEL-2, in the assay with SK-OV-3 and in the assay on U-251 was > 100 µM (inactive) throughout. For the same compound, the GI50 in the assay on UACC-257 and with UO-31 was > 100 µM (inactive) throughout.

Turning to `O=C(NCCn1ccnn1)Nc1ccccc1`, the GI50 in the assay with A549, in the assay with ACHN, in the assay with DU-145, in the assay on EKVX, in the assay with HOP-62 and in the assay on KM12 was > 100 µM (inactive) in each case. The GI50 in the assay with MCF7, in the assay on NCI-H23, in the assay on NCI-H522, in the assay with PC-3, in the assay with SF-268 and in the assay on SK-MEL-2 was > 100 µM (inactive) throughout. For the same compound, the GI50 in the assay on U-251 and in the assay on UACC-257 was > 100 µM (inactive) throughout.

`CCOC(=O)/C=C1/Nc2cc(F)c(F)cc2NC1=O`: the GI50 with A549, in the assay on ACHN, in the assay on DU-145, in the assay with EKVX, in the assay on HOP-62 and with Hs-578T was > 100 µM (inactive) each time. Moreover, the GI50 in the assay with KM12, with MCF7, in the assay on NCI-H23, in the assay with PC-3, in the assay on SF-268 and with SK-MEL-2 was > 100 µM (inactive) throughout. Also, the GI50 with SK-OV-3, in the assay on U-251, in the assay with UACC-257 and in the assay on UO-31 was > 100 µM (inactive) throughout.

Regarding `OCCc1ccsc1-c1sc(-c2cc(CCO)c(-c3sccc3CCO)s2)cc1CCO`, the GI50 in the assay with A498 is 22.5 µM (inactive); with A549, 29 µM (inactive); with ACHN, 15.8 µM (inactive); in the assay with DU-145, 15.5 µM (inactive); with EKVX it was 17.1 µM (inactive); in the assay on HOP-62, 14.5 µM (inactive). Besides, the GI50 in the assay with KM12 was 3.38 µM (inactive); in the assay with MCF7, 15.7 µM (inactive); in the assay with NCI-H23, 15.8 µM (inactive); in the assay with NCI-H522, 12.2 µM (inactive); in the assay with PC-3, 11.8 µM (inactive); in the assay on SF-268 it was 5.42 µM (inactive). Further, the GI50 in the assay with SK-MEL-2 is 14.7 µM (inactive); with SK-OV-3, 17.5 µM (inactive); in the assay with U-251, 12.7 µM (inactive); in the assay with UACC-257, 17 µM (inactive); with UO-31, 12.4 µM (inactive).

Consider `CCOc1ccc(-n2nnc3c(N)nc(N)nc32)cc1`, for which the GI50 with A498, in the assay with A549, in the assay with ACHN, in the assay on DU-145, in the assay on EKVX and in the assay with HOP-62 was > 100 µM (inactive) in each case. Also, the GI50 with KM12, in the assay with MCF7, in the assay on NCI-H23, in the assay with NCI-H522, with PC-3 and in the assay with SK-MEL-2 was > 100 µM (inactive) each time. Also, the GI50 in the assay with SK-OV-3, in the assay with T47D, with U-251 and in the assay on UACC-257 was > 100 µM (inactive) throughout.

For the compound `CC(=O)C1=CN=C2C(=O)N(c3ccccc3)N(C)C12C` (configuration not stated), the GI50 is > 100 µM (inactive) in the assay with A498; > 100 µM (inactive) in the assay on A549; > 100 µM (inactive) in the assay with ACHN; > 100 µM (inactive) in the assay with DU-145; > 100 µM (inactive) in the assay with EKVX; 3.08 µM (inactive) with KM12. In addition, the GI50 in the assay with MCF7, in the assay with NCI-H23, in the assay with NCI-H522, in the assay with PC-3, in the assay on SK-MEL-2 and with SK-OV-3 was > 100 µM (inactive) each time. Further, the GI50 in the assay on U-251, in the assay with UACC-257 and with UO-31 was > 100 µM (inactive) in each case.

Turning to `COC(=O)[C@@]12CC3CN(Cc4c1[nH]c1ccccc41)C2CC3=O`, the GI50 in the assay with A549, in the assay with ACHN, with DU-145, with EKVX, in the assay on HOP-62 and in the assay with KM12 was > 100 µM (inactive) each time. For the same compound, the GI50 with MCF7, in the assay with NCI-H23, in the assay on NCI-H522, in the assay on PC-3, in the assay on SF-268 and in the assay with SK-MEL-2 was > 100 µM (inactive) in each case. For the same compound, the GI50 in the assay on SK-OV-3, with T47D, with U-251 and with UACC-257 was > 100 µM (inactive) throughout.

As to `Nc1nc(Cl)cc(OCC2(CO)CCCC2)n1`, the GI50 in the assay with A498 was > 100 µM (inactive); in the assay with A549, > 100 µM (inactive); in the assay on ACHN it was > 100 µM (inactive); in the assay with DU-145 it was > 100 µM (inactive); in the assay on EKVX, 91.4 µM (inactive); in the assay on HOP-62, > 100 µM (inactive). Moreover, the GI50 in the assay on Hs-578T, in the assay on MCF7, in the assay on NCI-H23, in the assay with NCI-H522, in the assay on PC-3 and in the assay on SF-268 was > 100 µM (inactive) throughout. Besides, the GI50 with U-251 and in the assay with UACC-257 was > 100 µM (inactive) each time.

Consider `Cc1nc2ccc(S(=O)(=O)Nc3ccc(Cl)cc3)cc2c(=O)n1NC(=O)CNc1ccc(Cl)cc1`, for which the GI50 with A549, in the assay with ACHN, in the assay on DU-145, in the assay with EKVX, in the assay with HOP-62 and in the assay on Hs-578T was > 100 µM (inactive) throughout. Also, the GI50 in the assay with KM12 was 64 µM (inactive); with MCF7, > 100 µM (inactive); in the assay with NCI-H23, > 100 µM (inactive); with NCI-H522, > 100 µM (inactive); with PC-3, > 100 µM (inactive); with SF-268, > 100 µM (inactive). Further, the GI50 in the assay with SK-MEL-2, in the assay on SK-OV-3, in the assay with U-251, in the assay on UACC-257 and with UO-31 was > 100 µM (inactive) in each case.
